# Data from paper PMC6195846 (Molecular microbiology, 2018).
# Key:
# [1] = biological target: T1, RsBluE (Cereibacter sphaeroides, UniProt Q3IZR9); experiment: ADP-Glo ATPase assay; type: biochemical; conditions: ATPase inhibition by product; ADP 20 mM; sarkosyl-solubilized enzyme; 25 C
# [2] = biological target: T1, RsBluE; experiment: ADP-Glo ATPase assay; type: biochemical; conditions: ATPase inhibition; sodium pyrophosphate 10 mM; sarkosyl-solubilized enzyme; 25 C
% decrease in activity at 20 mM [1],% decrease in activity at 10 mM [2],SMILES
52%,–,Nc1ncnc2c1ncn2[C@@H]1O[C@H](COP(=O)(O)OP(=O)(O)O)[C@@H](O)[C@H]1O [ADP]
–,12%,O=P(O)(O)OP(=O)(O)O [PPi]
